In assay [1] the test system is hippocampal kindled seizures. As to the kind of experiment: Hippocampal kindled rat model of partial epilepsy. To be noted: i.p.; decreased from 5. Type of assay: in vivo.
The next assay deals with corneal kindling. Nature of the assay: Mouse corneal kindling acquisition. The class given is in vivo. Here is the method:
CF#1 mice were randomized to receive either vehicle (0.9% saline) or NAX-5055. Mice in the NAX-5055 group received two doses of NAX-5055 twelve (12 h) and 1 h prior to their first kindling stimulation. One hour (1 h) prior to each subsequent stimulation, mice in the NAX-5055 treated group received another dose of NAX-5055 (4 mg/kg, i.p.). Mice were stimulated twice daily for 16 days. Results are expressed as the mean seizure score per stimulation. As noted above, the results for the NAX-5055 treated mice segregated into two populations; i.e., sensitive (green line) and insensitive (blue line).
Mice treated with NAX-5055 (see legend to Figure X for experimental details) segregated into two treatment groups; i.e., NAX-5055 sensitive and NAX-5055 insensitive. Results are expressed as the number of stimulations required to reach a particular seizure score+/−S.E.M.; i.e., 1 to 5. […] One Way ANOVA, p<0.0209; post hoc analysis: saline vs. NAX-5055 insensitive, p>0.05; NAX-5055 sensitive vs. NAX-5055 insensitive, p<0.05.
Daily electrical stimulation via the cornea results in a stable kindled state within 15-20 days. This is an ideal model to initially assess the ability of selected galanin analogs to prevent kindling acquisition because the amount of peptide required is much lower than what is required for a rat kindling study. Those compounds found to be effective in preventing the acquisition of kindling are subsequently evaluated in a more traditional rat kindling model; i.e., amygdala kindled rat. For the proposed studies two groups of mice (n=8 mice per group) are randomized to receive either vehicle or peptide prior to each kindling stimulation. […] At the time to peak effect (obtained from the 6 Hz study), they are stimulated via corneal electrodes with a subconvulsive current (50 Hz, 3 mA, for 3.0 sec) and observed for the presence or absence of seizure activity. Seizure activity is scored according to the criteria established by Racine et al., (1972). Animals receive two stimulations per day until they display their first Stage 5 behavioral seizure and then once daily until they display stable secondarily generalized seizures (5 consecutive Stage 4-5 seizures). Peptide treatment continues in the experimental group until the point that the control mice become fully kindled. At this point, mice in both groups are permitted a one-week stimulus and treatment-free week. On the 8th day, mice in both groups are stimulated in the absence of peptide or vehicle and their seizure score recorded.
The ability of the blood-brain-barrier penetrant galanin-based neuropeptide NAX-5055 to prevent the development of corneal kindling was studied in CF#1 mice. […] Following stimulation seizure activity was scored on a scale of 0-5 as established by Racine (1972).

The mark [2] stands for this setting: 4 mg/kg i.p. twice daily, NAX-5055 sensitive group.

“Sar-Trp-Thr-Leu-Asn-Ser-Ala-Gly-Tyr-Leu-Leu-Gly-Pro-Lys-Lys-(Lys-palm)-Lys-NH2 [NAX 5055]” yielded a seizure score in assay [1] of 3. In addition, the kindling acquisition result in the assay with corneal kindling (4 mg/kg i.p.) was “can delay kindling acquisition”. For the same substance, in the assay with corneal kindling (setting [2]), the “Stage 5 seizures” value was “none of the mice in the NAX-5055 sensitive group reached Stage 5 seizures”; the “more stimulations to reach Stage 2 and Stage 3 seizures” value is 35-40%; the “stimulations required to reach a Stage 1 seizure” value is “two times more stimulations”.

(Values after patent publication US9586999B2, “Methods and compositions related to improving properties of pharmacological agents targeting nervous system” (University of Utah Research Foundation, priority 2006, dated 2017).)
